Results reported in patent US20120270864A1, “2-QUINOLINONE AND 2-QUINOXALINONE-DERIVATIVES AND THEIR USE AS ANTIBACTERIAL AGENTS” (ASTRAZENECA AB, priority 2006, published 2012).

Tested on: Staphylococcus aureus (Sau) 516 cells
Assay: Bacterial Susceptibility Testing Methods 2 (microbroth dilution, growth inhibition)
Format: cell-based
Source text: Compounds may be tested for antimicrobial activity by susceptibility testing using microbroth dilution methods recommended by CSLI. Compounds may be dissolved in dimethylsulfoxide and tested in 10 doubling dilutions in the susceptibility assays such that the final dimethylsulfoxide concentration in the assay is 2% (v/v). The Staphylococcus aureus (Sau) 516 cells used in the assay may be grown overnight on appropriate agar media and then suspended in the NCCLS-recommended liquid susceptibility-testing media. […] Plates may be incubated under appropriate conditions of atmosphere and temperature and for times according to NCCLS standard methods prior to being read. As used in Table 1 below, the term “inhibition” refers to the percentage of Staphylococcus aureus 516 cell growth that is suppressed (compared to an untreated sample) by the compound of the indicated example number. When tested in the above in-vitro assay, the compounds and salts of the example numbers listed below were tested at the indicated concentrations, providing the indicated inhibitions. In most instances, the highest concentrations at which the compounds were tested was 8 μg/mL. In some instances, however, compounds were tested at concentrations higher than 8 μg/mL, typically when the concentration was first measured in μM and was subsequently converted to μg/mL. In those cases in which compounds were tested at more than one concentration higher than 8 μg/mL, the concentration closest to 8 μg/mL is provided below.

[1] = Staphylococcus aureus, Tested Concentration 8 μg/mL, Staphylococcus aureus 516 cell growth suppressed compared to untreated sample
[2] = Tested Concentration 8 μg/mL, Staphylococcus aureus 516 cell growth suppressed compared to untreated sample

Row | SMILES | inhibition at 8 µg/mL [1] [%] | also measured
1 | CO[C@@H]1CN(CCn2c(=O)ccc3ccc(C#N)cc32)CC[C@@H]1NCc1ccc2c(n1)NC(=O)CS2 [Example 24, 1-[2-((3R,4S)-3-Methoxy-4-{[(3-oxo-3,4-dihydro-2H-pyrido[3,2-b][1,4]thiazin-6-yl)methyl]amino}piperidin-1-yl)ethyl]-2-oxo-1,2-dihydro quino line-7-carbonitrile] | 100 | 
2 | COc1ccc2ncc(=O)n(CCN3CC[C@H](NCc4ccc5c(n4)NC(=O)CO5)[C@H](F)C3)c2c1 [Example 46, 6-[({(3R,4S)-3-Fluoro-1-[2-(7-methoxy-2-oxoquinoxalin-1(2H)-yl)ethyl]piperidin-4-yl}amino)methyl]-2H-pyrido[3,2-b][1,4]oxazin-3 (4H)-one] | 100 | 
3 | N#Cc1ccc2ccc(=O)n(CCN3CC[C@@H](NCc4ccc5c(n4)NC(=O)CO5)[C@@H](O)C3)c2c1 [Example 5, 1-[2-((3S,4R)-3-Hydroxy-4-{[(3-oxo-3,4-dihydro-2H-pyrido[3,2-b][1,4]oxazin-6-yl)methyl]amino}piperidin-1-yl)ethyl]-2-oxo-1,2-dihydro quino line-7-carbonitrile] | 100 | 
4 | CO[C@H]1CN(CCn2c(=O)ccc3ccc(C#N)cc32)CC[C@H]1NCc1cc2c(cn1)OCCO2 [Example 19, 1-(2-{(3S,4R)-4-[(2,3-Dihydro[1,4]dioxino[2,3-c]pyridin-7-ylmethyl)amino]-3-methoxypiperidin-1-yl}ethyl)-2-oxo-1,2-dihydro quinoline-7-carbonitrile] | 100 | 
5 | COc1ccc2ncc(=O)n(CCN3CC[C@H](NCc4cc5c(cn4)OCCO5)[C@H](OC)C3)c2c1 [Example 16, 1-(2-{(3R,4S)-4-[(2,3-Dihydro[1,4]dioxino[2,3-c]pyridin-7-ylmethyl)amino]-3-methoxypiperidin-1-yl}ethyl)-7-methoxyquinoxalin-2(1H)-one] | 97 | 
6 | CO[C@@H]1CN(CCn2c(=O)ccc3ccc(C#N)cc32)CC[C@H]1NCc1ccc2c(n1)NC(=O)CO2 [Example 42, 1-[2-((3R,4R)-3-methoxy-4-{[(3-oxo-3,4-dihydro-2H-pyrido[3,2-b][1,4]oxazin-6-yl)methyl]amino}piperidin-1-yl)ethyl]-2-oxo-1,2-dihydroquinoline-7-carbonitrile] | 100 | 
7 | N#Cc1ccc2ccc(=O)n(CCN3CCC(NCc4ccc5c(n4)NC(=O)CO5)C(F)C3)c2c1 (centres unmarked) [Example 34] |  | Inhibition (%) (Tested Concentration 12 μg/mL, Staphylococcus aureus 516 cell growth): 91%
8 | COc1ccc2ncc(=O)n(CCN3CC[C@H](NCc4ccc5c(n4)NC(=O)CS5)[C@H](OC)C3)c2c1 [Example 18] |  | Inhibition (%) [2]: 95%
9 | COc1ccc2ncc(=O)n(CCN3CC[C@@H](NCc4ccc5c(n4)NC(=O)CO5)[C@@H](F)C3)c2c1 [Example 45, 6-[({(3S,4R)-3-Fluoro-1-[2-(7-methoxy-2-oxoquinoxalin-1(2H)-yl)ethyl]piperidin-4-yl}amino)methyl]-2H-pyrido[3,2-b][1,4]oxazin-3(4H)-one] | 97 | 
10 | COc1ccc2ncc(=O)n(CCN3CC[C@@H](NCc4cc5c(cn4)OCCO5)[C@H](OC)C3)c2c1 [Example 27, 1-(2-{(3R,4R)-4-[(2,3-Dihydro[1,4]dioxino[2,3-c]pyridin-7-ylmethyl)amino]-3-methoxypiperidin-1-yl}ethyl)-7-methoxyquinoxalin-2(1H)-one] | 87 | 
11 | COc1ccc2ncc(=O)n(CCN3CCC(NCc4cc5c(cn4)OCCO5)C(O)C3)c2c1 (single isomer, unassigned) [Example 29, 1-(2-{4-[(2,3-Dihydro[1,4]dioxino[2,3-c]pyridin-7-ylmethyl)amino]-3-hydroxypiperidin-1-yl}ethyl)-7-methoxyquinoxalin-2(1H)-one] | 84 | 
12 | CO[C@H]1CN(CCn2c(=O)ccc3ccc(C#N)cc32)CC[C@H]1NCc1ccc2c(n1)NC(=O)CO2 [Example 20, 1-[2-((3S,4R)-3-M ethoxy-4-{[(3-oxo-3,4-dihydro-2H-pyrido[3,2-b][1,4]oxazin-6-yl)methyl]amino}piperidin-1-yl)ethyl]-2-oxo-1,2-dihydro quino line-7-carbonitrile] | 100 | 
13 | COc1ccc2ncc(=O)n(CCN3CC[C@H](NCc4ccc5c(n4)NC(=O)CS5)[C@H](O)C3)c2c1 [Example 9] |  | Inhibition (%) [2]: 100%
14 | N#Cc1ccc2ccc(=O)n(CCN3CC[C@H](NCc4cc5c(cn4)OCCO5)[C@H](O)C3)c2c1 [Example 1] |  | Inhibition (%) [2]: 100%
15 | COc1ccc2ncc(=O)n(CCN3CC[C@@H](NCc4ccc5c(n4)NC(=O)CO5)[C@@H](O)C3)c2c1 [Example 11, 6-[({(3S,4R)-3-Hydroxy-1-[2-(7-methoxy-2-oxoquinoxalin-1(2H)-yl)ethyl]piperidin-4-yl}amino)methyl]-2H-pyrido[3,2-b][1,4]oxazin-3(4H)-one] | 100 | 
16 | COc1ccc2ncc(=O)n(CCN3CC[C@H](NCc4cc5c(cn4)OCCO5)[C@@H](OC)C3)c2c1 [Example 25, 1-(2-{(3S,4S)-4-[(2,3-Dihydro[1,4]dioxino[2,3-c]pyridin-7-ylmethyl)amino]-3-methoxypiperidin-1-yl}ethyl)-7-methoxyquinoxalin-2(1H)-one] | 98 | 
17 | COc1ccc2ncc(=O)n(CCN3CC[C@H](NCc4cc5c(cn4)OCCO5)[C@H](O)C3)c2c1 [Example 7, 1-(2-{(3R,4S)-4-[(2,3-Dihydro[1,4]dioxino[2,3-c]pyridin-7-ylmethyl)amino]-3-hydroxypiperidin-1-yl}ethyl)-7-methoxyquinoxalin-2(1H)-one] | 100 | 
18 | COc1ccc2ncc(=O)n(CCN3CC[C@@H](NCc4cc5c(cn4)OCCO5)[C@@H](OC)C3)c2c1 [Example 14, 1-(2-{(3S,4R)-4-[(2,3-Dihydro[1,4]dioxino[2,3-c]pyridin-7-ylmethyl)amino]-3-methoxypiperidin-1-yl}ethyl)-7-methoxyquinoxalin-2(1H)-one] | 100 | 
19 | N#Cc1ccc2ccc(=O)n(CCN3CCC(NCc4cc5c(cn4)OCCO5)C(F)C3)c2c1 (single isomer, unassigned) [Example 33, 1-(2-{4-[(2,3-Dihydro[1,4]dioxino[2,3-c]pyridin-7-ylmethyl)amino]-3-fluoropiperidin-1-yl}ethyl)-2-oxo-1,2-dihydroquinoline-7-carbonitrile] |  | inhibition at 13 µg/mL (Staphylococcus aureus, Tested Concentration 13 μg/mL, Staphylococcus aureus 516 cell growth): 96%
20 | N#Cc1ccc2ccc(=O)n(CCN3CC[C@H](NCc4cc5c(cn4)OCCO5)[C@H](F)C3)c2c1 [Example 13, 1-(2-{(3R,4S)-4-[(2,3-Dihydro[1,4]dioxino[2,3-c]pyridin-7-ylmethyl)amino]-3-fluoropiperidin-1-yl}ethyl)-2-oxo-1,2-dihydro quino line-7-carbonitrile] | 100 | 
21 | COc1ccc2ncc(=O)n(CCN3CC[C@H](NCc4ccc5c(n4)NC(=O)CO5)[C@@H](OC)C3)c2c1 [Example 26, 6-[({(3S,4S)-3-Methoxy-1-[2-(7-methoxy-2-oxoquinoxalin-1(2H)-yl)ethyl]piperidin-4-yl}amino)methyl]-2H-pyrido[3,2-b][1,4]oxazin-3(4H)-one] | 98 | 
22 | CO[C@@H]1CN(CCn2c(=O)cc(C)c3ccc(C#N)cc32)CC[C@@H]1NCc1ccc2c(n1)NC(=O)CO2 [Example 47, 1-[2-((3R,4S)-3-M ethoxy-4-{[(3-oxo-3,4-dihydro-2H-pyrido[3,2-b][1,4]oxazin-6-yl)methyl]amino}piperidin-1-yl)ethyl]-4-methyl-2-oxo-1,2-dihydroquinoline-7-carbonitrile] | 100 | 
23 | CO[C@@H]1CN(CCn2c(=O)ccc3ccc(C#N)cc32)CC[C@@H]1NCc1ccc2c(n1)NC(=O)CO2 [Example 23, 1-[2-((3R,4S)-3-M ethoxy-4-{[(3-oxo-3,4-dihydro-2H-pyrido[3,2-b][1,4]oxazin-6-yl)methyl]amino}piperidin-1-yl)ethyl]-2-oxo-1,2-dihydro quino line-7-carbonitrile] | 100 | 
24 | COc1ccc2ncc(=O)n(CCN3CCC(NCc4cc5c(cn4)OCCO5)C(F)C3)c2c1 (single isomer, unassigned) [Example 35, 1-(2-{4-[(2,3-Dihydro[1,4]dioxino[2,3-c]pyridin-7-ylmethyl)amino]-3-fluoropiperidin-1-yl}ethyl)-7-methoxyquinoxalin-2(1H)-one] |  | inhibition at 14 µg/mL (Staphylococcus aureus, Tested Concentration 14 μg/mL, Staphylococcus aureus 516 cell growth): 100%
25 | COc1ccc2ncc(=O)n(CCN3CC[C@@H](NCc4ccc5c(n4)NC(=O)CO5)[C@H](OC)C3)c2c1 [Example 28, 6-[({(3R,4R)-3-Methoxy-1-[2-(7-methoxy-2-oxoquinoxalin-1(2H)-yl)ethyl]piperidin-4-yl}amino)methyl]-2H-pyrido[3,2-b][1,4]oxazin-3(4H)-one] | 98 | 
26 | COc1ccc2ncc(=O)n(CCN3CCC(NCc4ccc5c(n4)NC(=O)CO5)C(O)C3)c2c1 (single isomer, unassigned) [Example 32, 6-[({3-Hydroxy-1-[2-(7-methoxy-2-oxoquinoxalin-1(2H)-yl)ethyl]piperidin-4-yl}amino)methyl]-2H-pyrido[3,2-b][1,4]oxazin-3 (4H)-one] |  | Inhibition (%) [2]: 98%
